In ChEMBL document CHEMBL6092222 (J Med Chem, 2024):
Converted amounts (≈) assume the structure as drawn.

Assays:
[1] = AUC in Sprague-Dawley rat at 25 mg/kg, po measured for 24 hrs by UPLC-MS/MS analysis; type: ADME, organism-based; settings: in vivo
physchem [2] = settings: aqueous buffer, pH 6.5
Description: Solubility of compound in aqueous buffer at pH 6.5 at 25 degreeC by reversed phase-HPLC analysis

[3] = Prodrug conversion in Sprague-Dawley rat assessed as AUC of 6-(cyclopropanecarboxamido)-4-((2-methoxy-3-(2-methyl-2H-tetrazol-5-yl)phenyl)amino)-N-(methyl-d3)nicotinamide metabolite at 150 mg/kg, po measured for 24 hrs by UPLC-MS/MS analysis; type: ADME, organism-based; settings: in vivo
[4] = Prodrug conversion in Sprague-Dawley rat assessed as Cmax of 6-(cyclopropanecarboxamido)-4-((2-methoxy-3-(2-methyl-2H-tetrazol-5-yl)phenyl)amino)-N-(methyl-d3)nicotinamide metabolite at 150 mg/kg, po measured for 24 hrs by UPLC-MS/MS analysis; type: ADME, organism-based; settings: in vivo
[5] = Prodrug conversion in Sprague-Dawley rat assessed as Tmax of 6-(cyclopropanecarboxamido)-4-((2-methoxy-3-(2-methyl-2H-tetrazol-5-yl)phenyl)amino)-N-(methyl-d3)nicotinamide metabolite at 150 mg/kg, po measured for 24 hrs by UPLC-MS/MS analysis; type: ADME, organism-based; settings: in vivo
[6] = Prodrug conversion in Pentagastrine-pretreated Sprague-Dawley rat assessed as Cmax of 6-(cyclopropanecarboxamido)-4-((2-methoxy-3-(2-methyl-2H-tetrazol-5-yl)phenyl)amino)-N-(methyl-d3)nicotinamide metabolite at 10 mg/kg, po measured for 24 hrs by UPLC-MS/MS analysis; type: ADME, organism-based; settings: in vivo
[7] = Prodrug conversion in Sprague-Dawley rat assessed as Cmax of 6-(cyclopropanecarboxamido)-4-((2-methoxy-3-(2-methyl-2H-tetrazol-5-yl)phenyl)amino)-N-(methyl-d3)nicotinamide metabolite at 5 mg/kg, po measured for 24 hrs by UPLC-MS/MS analysis; type: ADME, organism-based; settings: in vivo
[8] = Prodrug conversion in Sprague-Dawley rat assessed as AUC of 6-(cyclopropanecarboxamido)-4-((2-methoxy-3-(2-methyl-2H-tetrazol-5-yl)phenyl)amino)-N-(methyl-d3)nicotinamide metabolite at 25 mg/kg, po measured for 24 hrs by UPLC-MS/MS analysis; type: ADME, organism-based; settings: in vivo
[9] = Prodrug conversion in Pentagastrine-pretreated Sprague-Dawley rat assessed as AUC (total) of 6-(cyclopropanecarboxamido)-4-((2-methoxy-3-(2-methyl-2H-tetrazol-5-yl)phenyl)amino)-N-(methyl-d3)nicotinamide metabolite at 10 mg/kg, po measured for 24 hrs by UPLC-MS/MS analysis; type: ADME, organism-based; settings: in vivo
[10] = Prodrug conversion in Sprague-Dawley rat assessed as Tmax of 6-(cyclopropanecarboxamido)-4-((2-methoxy-3-(2-methyl-2H-tetrazol-5-yl)phenyl)amino)-N-(methyl-d3)nicotinamide metabolite at 25 mg/kg, po measured for 24 hrs by UPLC-MS/MS analysis; type: ADME, organism-based; settings: in vivo
[11] = Prodrug conversion in Sprague-Dawley rat assessed as Tmax of 6-(cyclopropanecarboxamido)-4-((2-methoxy-3-(2-methyl-2H-tetrazol-5-yl)phenyl)amino)-N-(methyl-d3)nicotinamide metabolite at 5 mg/kg, po measured for 24 hrs by UPLC-MS/MS analysis; type: ADME, organism-based; settings: in vivo
physchem [12] = settings: aqueous buffer, pH 1
Description: Solubility of compound in aqueous buffer at pH 1 at 25 degreeC by reversed phase-HPLC analysis

[13] = Cmax in Sprague-Dawley rat at 25 mg/kg, po measured for 24 hrs by UPLC-MS/MS analysis; type: ADME, organism-based; settings: in vivo
[14] = Prodrug conversion in Famotidine-pretreated Sprague-Dawley rat assessed as Cmax of 6-(cyclopropanecarboxamido)-4-((2-methoxy-3-(2-methyl-2H-tetrazol-5-yl)phenyl)amino)-N-(methyl-d3)nicotinamide metabolite at 10 mg/kg, po measured for 24 hrs by UPLC-MS/MS analysis; type: ADME, organism-based; settings: in vivo
[15] = target: Intestinal-type alkaline phosphatase 1 (Rattus norvegicus, UniProt P15693); test: Prodrug conversion in tris buffer at pH 7.4 assessed as intestinal recombinant rat ALP-mediated 6-(cyclopropanecarboxamido)-4-((2-methoxy-3-(2-methyl-2H-tetrazol-5-yl)phenyl)amino)-N-(methyl-d3)nicotinamide metabolite formation by measuring half life of metabolite at 1 uM incubated for 30 mins by UPLC-MS/MS analysis; type: ADME; settings: pH 7.4, 0.5 h
[16] = Solubility of compound in FeSSIF at pH 5 by reversed-phase UPLC analysis; type: physicochemical
[17] = Prodrug conversion in Sprague-Dawley rat assessed as Cmax of 6-(cyclopropanecarboxamido)-4-((2-methoxy-3-(2-methyl-2H-tetrazol-5-yl)phenyl)amino)-N-(methyl-d3)nicotinamide metabolite at 25 mg/kg, po measured for 24 hrs by UPLC-MS/MS analysis; type: ADME, organism-based; settings: in vivo
[18] = Chemical stability of compound in phosphate buffer at pH 6.5 at 37 degreeC assessed as half life measured for 24 hrs by reversed phase-HPLC analysis; type: physicochemical
[19] = Chemical stability of compound in acetate buffer at pH 4 at 37 degreeC assessed as half life measured for 24 hrs by reversed phase-HPLC analysis; type: physicochemical
[20] = Prodrug conversion in Famotidine-pretreated Sprague-Dawley rat assessed as Tmax of 6-(cyclopropanecarboxamido)-4-((2-methoxy-3-(2-methyl-2H-tetrazol-5-yl)phenyl)amino)-N-(methyl-d3)nicotinamide metabolite at 10 mg/kg, po measured for 24 hrs by UPLC-MS/MS analysis; type: ADME, organism-based; settings: in vivo
[21] = Prodrug conversion in Pentagastrine-pretreated Sprague-Dawley rat assessed as Tmax of 6-(cyclopropanecarboxamido)-4-((2-methoxy-3-(2-methyl-2H-tetrazol-5-yl)phenyl)amino)-N-(methyl-d3)nicotinamide metabolite at 10 mg/kg, po measured for 24 hrs by UPLC-MS/MS analysis; type: ADME, organism-based; settings: in vivo
[22] = Prodrug conversion in Famotidine-pretreated Sprague-Dawley rat assessed as AUC (total) of 6-(cyclopropanecarboxamido)-4-((2-methoxy-3-(2-methyl-2H-tetrazol-5-yl)phenyl)amino)-N-(methyl-d3)nicotinamide metabolite at 10 mg/kg, po measured for 24 hrs by UPLC-MS/MS analysis; type: ADME, organism-based; settings: in vivo
[23] = Cmax in Sprague-Dawley rat at 5 mg/kg, po measured for 24 hrs by UPLC-MS/MS analysis; type: ADME, organism-based; settings: in vivo
[24] = target: Intestinal-type alkaline phosphatase (Homo sapiens, UniProt P09923); test: Prodrug conversion in tris buffer at pH 7.4 assessed as intestinal recombinant human ALP-mediated 6-(cyclopropanecarboxamido)-4-((2-methoxy-3-(2-methyl-2H-tetrazol-5-yl)phenyl)amino)-N-(methyl-d3)nicotinamide metabolite formation by measuring half life of metabolite at 1 uM incubated for 30 mins by UPLC-MS/MS analysis; type: ADME; settings: pH 7.4, 0.5 h
[25] = Tmax in Sprague-Dawley rat at 25 mg/kg, po measured for 24 hrs by UPLC-MS/MS analysis; type: ADME, organism-based; settings: in vivo
physchem [26] = settings: aqueous buffer, pH 4
Description: Solubility of compound in aqueous buffer at pH 4 at 25 degreeC by reversed phase-HPLC analysis

[27] = AUC in Sprague-Dawley rat at 5 mg/kg, po measured for 24 hrs by UPLC-MS/MS analysis; type: ADME, organism-based; settings: in vivo
[28] = Solubility of compound in FaSSIF at pH 6.5 by reversed-phase UPLC analysis; type: physicochemical
[29] = Prodrug conversion in Sprague-Dawley rat assessed as AUC of 6-(cyclopropanecarboxamido)-4-((2-methoxy-3-(2-methyl-2H-tetrazol-5-yl)phenyl)amino)-N-(methyl-d3)nicotinamide metabolite at 5 mg/kg, po measured for 24 hrs by UPLC-MS/MS analysis; type: ADME, organism-based; settings: in vivo
[30] = Tmax in Sprague-Dawley rat at 5 mg/kg, po measured for 24 hrs by UPLC-MS/MS analysis; type: ADME, organism-based; settings: in vivo
[31] = Chemical stability of compound in 0.1 M HCl at pH 1 at 37 degreeC assessed as half life measured for 24 hrs by reversed phase-HPLC analysis; type: physicochemical

Intestinal-type alkaline phosphatase, sequence (P09923 whole entry): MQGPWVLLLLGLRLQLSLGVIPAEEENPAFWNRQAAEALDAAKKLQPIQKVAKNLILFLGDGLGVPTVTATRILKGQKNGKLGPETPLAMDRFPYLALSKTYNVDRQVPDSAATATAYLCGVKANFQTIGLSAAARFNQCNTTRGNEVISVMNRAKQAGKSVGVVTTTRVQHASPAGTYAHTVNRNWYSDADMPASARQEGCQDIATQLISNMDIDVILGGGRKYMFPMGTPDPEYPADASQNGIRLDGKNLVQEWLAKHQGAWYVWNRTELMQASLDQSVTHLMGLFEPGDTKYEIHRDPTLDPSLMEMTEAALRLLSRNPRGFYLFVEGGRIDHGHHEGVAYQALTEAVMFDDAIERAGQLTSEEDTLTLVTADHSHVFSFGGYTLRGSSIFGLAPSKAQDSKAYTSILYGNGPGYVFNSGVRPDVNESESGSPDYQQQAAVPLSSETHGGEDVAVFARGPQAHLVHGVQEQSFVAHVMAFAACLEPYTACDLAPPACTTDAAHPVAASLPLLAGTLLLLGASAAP
Intestinal-type alkaline phosphatase 1, sequence (P15693 whole entry): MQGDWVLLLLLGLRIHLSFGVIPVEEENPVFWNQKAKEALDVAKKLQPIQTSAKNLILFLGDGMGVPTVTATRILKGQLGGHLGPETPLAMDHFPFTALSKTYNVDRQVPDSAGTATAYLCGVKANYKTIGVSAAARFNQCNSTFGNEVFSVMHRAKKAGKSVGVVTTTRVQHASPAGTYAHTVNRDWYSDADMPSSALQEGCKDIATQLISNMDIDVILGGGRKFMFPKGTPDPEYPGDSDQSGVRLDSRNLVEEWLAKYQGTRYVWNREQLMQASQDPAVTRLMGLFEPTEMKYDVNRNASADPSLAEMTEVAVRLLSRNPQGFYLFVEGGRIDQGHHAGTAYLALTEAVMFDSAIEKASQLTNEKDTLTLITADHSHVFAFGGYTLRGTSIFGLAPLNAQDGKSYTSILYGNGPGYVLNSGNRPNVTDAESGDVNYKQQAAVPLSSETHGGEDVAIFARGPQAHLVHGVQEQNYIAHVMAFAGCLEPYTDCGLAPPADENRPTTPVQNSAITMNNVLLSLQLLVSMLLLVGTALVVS

[2H]C([2H])([2H])NC(=O)c1cn(COP(=O)(O)O)/c(=N/C(=O)C2CC2)cc1Nc1cccc(-c2nnn(C)n2)c1OC
AUC [1]: Below_limit_of_detection | solubility (physchem [2]): 660 µg/mL (≈ 1230 µM) | AUC [3]: 804.3 µM·h | Cmax [4]: 58.2 µM | Tmax [5]: 3 h | Cmax [6]: 11.4 µM | Cmax [7]: 4.91 µM | AUC [8]: 96.9 µM·h | AUC [9]: 63 µM·h | Tmax [10]: 3 h | Tmax [11]: 0.5 h | solubility (physchem [12]): 16 µg/mL (≈ 29.9 µM) | Cmax [13]: Below_limit_of_detection | Cmax [14]: 12.4 µM | t1/2 [15]: < 5 min | solubility [16]: 100 µg/mL (≈ 187 µM) | Cmax [17]: 13 µM | half-life [18]: 67.1 h | half-life [19]: 286 h | Tmax [20]: 1.5 h | Tmax [21]: 1 h | AUC [22]: 69 µM·h | Cmax [23]: Below_limit_of_detection | t1/2 [24]: < 5 min | Tmax [25]: Below_limit_of_detection | solubility (physchem [26]): 27 µg/mL (≈ 50.4 µM) | AUC [27]: Below_limit_of_detection | solubility [28]: 1630 µg/mL (≈ 3040 µM) | AUC [29]: 19.2 µM·h | Tmax [30]: Below_limit_of_detection | half-life [31]: > 500 h
